Values quoted from earlier work as cited in US9763439B2, “Method of packaging food” (Universidad de Santiago de Chile, priority 2013, dated 2017).

Conditions: thermoforming process (±140° C.) does not affect its stability

SMILES: C/C=C/C=C/C(=O)[O-].[K+] [potassium sorbate]
- temperature withstood: up to 270 °C
